Results taken from PubChem BioAssay (NCI).
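Step 1: Grow cells in 96-well plates. Step 2: Expose to compound for 48 hours at 5 concentrations. Step 3: Interpolate endpoints linearly; if unreached, use highest concentration. GI50: concentration for 50% inhibition of growth. TGI: concentration producing complete growth inhibition.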

Columns and labels:
Experiment in all cases: NCI tumour cell line growth inhibition, 48 h
SW-620 colon = system: SW-620 colon
NCI/ADR-RES ovarian = system: NCI/ADR-RES ovarian
T-47D breast = system: T-47D breast
A549 NSCLC = system: A549 NSCLC
COLO 205 colon = system: COLO 205 colon
U251 CNS = system: U251 CNS
M14 melanoma = system: M14 melanoma
CCRF-CEM leukemia = system: CCRF-CEM leukemia
KM12 colon = system: KM12 colon
NCI-H226 lung = system: NCI-H226 lung
A498 renal = system: A498 renal
EKVX NSCLC = system: EKVX NSCLC
HOP-92 NSCLC = system: HOP-92 NSCLC
SK-MEL-5 melanoma = system: SK-MEL-5 melanoma
RXF 393 renal = system: RXF 393 renal
786-0 renal = system: 786-0 renal
HS 578T breast = system: HS 578T breast
UACC-257 melanoma = system: UACC-257 melanoma
OVCAR-8 ovarian = system: OVCAR-8 ovarian
MDA-MB-435 = system: MDA-MB-435
NCI-H522 lung = system: NCI-H522 lung
MDA-MB-231 breast = system: MDA-MB-231 breast
MCF7 breast = system: MCF7 breast
CAKI-1 renal = system: CAKI-1 renal
SF-539 CNS = system: SF-539 CNS
TK-10 renal = system: TK-10 renal
SK-MEL-28 melanoma = system: SK-MEL-28 melanoma
HCT-15 colon = system: HCT-15 colon
SF-268 CNS = system: SF-268 CNS
K-562 leukemia = system: K-562 leukemia
SN12C renal = system: SN12C renal
SF-295 CNS = system: SF-295 CNS
OVCAR-4 ovarian = system: OVCAR-4 ovarian
SR leukemia = system: SR leukemia
MALME-3M melanoma = system: MALME-3M melanoma
HCC-2998 colon = system: HCC-2998 colon
NCI-H23 lung = system: NCI-H23 lung
DU-145 prostate = system: DU-145 prostate
HL-60(TB) leukemia = system: HL-60(TB) leukemia
HOP-62 NSCLC = system: HOP-62 NSCLC
RPMI-8226 leukemia = system: RPMI-8226 leukemia
OVCAR-5 ovarian = system: OVCAR-5 ovarian
SNB-75 CNS = system: SNB-75 CNS
HT29 colon = system: HT29 colon
ACHN renal = system: ACHN renal
SK-OV-3 ovarian = system: SK-OV-3 ovarian
UACC-62 melanoma = system: UACC-62 melanoma
PC-3 prostate = system: PC-3 prostate
BT-549 breast = system: BT-549 breast
UO-31 renal = system: UO-31 renal
IGROV1 ovarian = system: IGROV1 ovarian
MOLT-4 leukemia = system: MOLT-4 leukemia
SNB-19 CNS = system: SNB-19 CNS
SK-MEL-2 melanoma = system: SK-MEL-2 melanoma
NCI-H460 lung = system: NCI-H460 lung
HCT-116 colon = system: HCT-116 colon

## Nc1cc(F)ccc1NC(=O)c1ccc(NC(=O)C/C=C/c2cccnc2)cn1
SW-620 colon
  GI50: 0.208 µM
  TGI: 12.5 µM
NCI/ADR-RES ovarian
  GI50: 1.31 µM
  TGI: > 50 µM
T-47D breast
  GI50: 0.75 µM
  TGI: > 50 µM
A549 NSCLC
  GI50: 3.02 µM
  TGI: > 50 µM
COLO 205 colon
  GI50: 0.576 µM
  TGI: 10.4 µM
U251 CNS
  GI50: 1.51 µM
  TGI: > 50 µM
M14 melanoma
  GI50: 0.563 µM
  TGI: > 50 µM
CCRF-CEM leukemia
  GI50: 0.2 µM
  TGI: > 50 µM
KM12 colon
  GI50: 2.8 µM
  TGI: > 50 µM
NCI-H226 lung
  GI50: 2.3 µM
  TGI: > 50 µM
A498 renal
  GI50: 0.937 µM
  TGI: 3.37 µM
EKVX NSCLC
  GI50: 2.49 µM
  TGI: > 50 µM
HOP-92 NSCLC
  GI50: 0.699 µM
  TGI: 10.9 µM
SK-MEL-5 melanoma
  GI50: 0.96 µM
  TGI: 1.9 µM
RXF 393 renal
  GI50: 0.938 µM
  TGI: 3.48 µM
786-0 renal
  GI50: 2.2 µM
  TGI: > 50 µM
HS 578T breast
  GI50: 1.3 µM
  TGI: > 50 µM
UACC-257 melanoma
  GI50: 1.65 µM
  TGI: > 50 µM
OVCAR-8 ovarian
  GI50: 0.147 µM
  TGI: > 50 µM
MDA-MB-435
  GI50: 1.25 µM
  TGI: 7.18 µM
NCI-H522 lung
  GI50: 0.629 µM
  TGI: 30 µM
MDA-MB-231 breast
  GI50: 8.61 µM
  TGI: > 50 µM
MCF7 breast
  GI50: 1.11 µM
  TGI: 10 µM
CAKI-1 renal
  GI50: 1.88 µM
  TGI: 13.8 µM
SF-539 CNS
  GI50: 0.177 µM
  TGI: 4 µM
TK-10 renal
  GI50: 0.673 µM
  TGI: 8.16 µM
SK-MEL-28 melanoma
  GI50: 1.35 µM
  TGI: 4.23 µM
HCT-15 colon
  GI50: 0.667 µM
  TGI: > 50 µM
SF-268 CNS
  GI50: 2.24 µM
  TGI: > 50 µM
K-562 leukemia
  GI50: 0.302 µM
  TGI: > 50 µM
SN12C renal
  GI50: 0.364 µM
  TGI: > 50 µM
SF-295 CNS
  GI50: 1.8 µM
  TGI: 7.36 µM
OVCAR-4 ovarian
  GI50: 2.21 µM
  TGI: > 50 µM
SR leukemia
  GI50: 0.876 µM
  TGI: > 50 µM
MALME-3M melanoma
  GI50: 0.465 µM
  TGI: 4.81 µM
HCC-2998 colon
  GI50: 1.43 µM
  TGI: 6.98 µM
NCI-H23 lung
  GI50: 1.68 µM
  TGI: 37.9 µM
DU-145 prostate
  GI50: 1.1 µM
  TGI: 5.16 µM
HL-60(TB) leukemia
  GI50: 0.525 µM
  TGI: > 50 µM
HOP-62 NSCLC
  GI50: 1.99 µM
  TGI: > 50 µM
RPMI-8226 leukemia
  GI50: 0.24 µM
  TGI: 2.05 µM
OVCAR-5 ovarian
  GI50: 0.781 µM
  TGI: > 50 µM
SNB-75 CNS
  GI50: 0.794 µM
  TGI: 47.3 µM
HT29 colon
  GI50: 1.5 µM
  TGI: > 50 µM
ACHN renal
  GI50: 2.21 µM
  TGI: > 50 µM
SK-OV-3 ovarian
  GI50: 2.58 µM
  TGI: > 50 µM
UACC-62 melanoma
  GI50: 1.31 µM
  TGI: 5.95 µM
PC-3 prostate
  GI50: 1.11 µM
  TGI: > 50 µM
BT-549 breast
  GI50: 1.3 µM
  TGI: 8.31 µM
UO-31 renal
  GI50: 1.63 µM
  TGI: > 50 µM
IGROV1 ovarian
  GI50: 0.804 µM
  TGI: > 50 µM
MOLT-4 leukemia
  GI50: 0.908 µM
  TGI: > 50 µM
SNB-19 CNS
  GI50: 2.15 µM
  TGI: > 50 µM
SK-MEL-2 melanoma
  GI50: 2.01 µM
  TGI: > 50 µM
NCI-H460 lung
  GI50: 1.43 µM
  TGI: > 50 µM
HCT-116 colon
  GI50: 0.186 µM
  TGI: 3.42 µM
